From US7932277B2, “Peptide inhibitors of hepatitis C virus replication” (InterMune, Inc., priority 2007, dated 2011)

Key:
[1] = target: T1, NS3/NS4A-2 (full-length HCV NS3 protease complexed with NS4A-2) (Hepatitis C virus genotype 1a, UniProt P27958); experiment: NS3 inhibition assay (NS3-NS4 protease assay); format: biochemical; details: recombinant full-length NS3/NS4A-2, RETS1 substrate, kinetic fluorescence read; read-out: NS3-NS4 IC50
T1 construct: Recombinant E. coli or Baculovirus full-length NS3; host or cells: E. coli or baculovirus (insect cells)
Summary of the method: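 Full-length NS3 (E. coli-expressed at 2 nM or baculovirus-expressed at 3 nM) precomplexed with excess NS4A-2 peptide and preincubated with compound (top concentration 50 μM) for 10 min at room temperature. RETS1 substrate added; fluorescence read kinetically for 30 min (ex 335/em 495 nm). IC50 converted to Ki using Km 2.03 μM (E. coli) or 1.74 μM (baculovirus).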

[2] = system: HCV sub-genomic replicon (1377/NS3-3') in HuH-7 hepatoma cells (GS4.3); experiment: Quantitation by ELISA of NPTII in the HCV sub-genomic replicon, GS4.3; format: cell-based, hepatitis C virus (HCV); details: Hepatitis C virus, Huh-7; GS4.3 cells, 72 h incubation, NPTII ELISA; read-out: Replicon EC50
Summary of the method: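 GS4.3 cells (HuH-7 carrying HCV 1377/NS3-3′ replicon) treated 72 h at 37 °C with compound at 3-fold dilutions from 10 μM to 56 pM final, 1% DMSO, without G418. NPTII in lysates quantified by ELISA (450 nm). Signal expressed as percent of DMSO control; EC50 by 4-parameter fit.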

T1 sequence (P27958 1027-1657, one chain of several): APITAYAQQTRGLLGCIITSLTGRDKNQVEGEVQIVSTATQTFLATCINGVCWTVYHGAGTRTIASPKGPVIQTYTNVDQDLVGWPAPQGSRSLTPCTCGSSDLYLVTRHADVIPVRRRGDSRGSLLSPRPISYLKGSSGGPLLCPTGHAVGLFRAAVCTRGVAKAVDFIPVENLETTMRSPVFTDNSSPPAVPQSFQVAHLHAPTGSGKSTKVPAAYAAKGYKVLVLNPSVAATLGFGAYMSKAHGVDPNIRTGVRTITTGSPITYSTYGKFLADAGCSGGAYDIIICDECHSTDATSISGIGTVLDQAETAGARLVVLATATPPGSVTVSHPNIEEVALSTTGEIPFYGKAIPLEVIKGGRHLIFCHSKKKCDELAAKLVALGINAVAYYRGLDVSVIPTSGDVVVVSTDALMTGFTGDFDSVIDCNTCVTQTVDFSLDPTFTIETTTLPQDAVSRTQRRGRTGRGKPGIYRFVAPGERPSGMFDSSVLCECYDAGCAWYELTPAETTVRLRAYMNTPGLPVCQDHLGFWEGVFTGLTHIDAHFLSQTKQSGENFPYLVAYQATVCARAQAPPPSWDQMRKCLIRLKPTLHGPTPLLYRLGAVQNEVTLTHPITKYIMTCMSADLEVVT

Compound: CC[C@@H]1C[C@]1(NC(=O)[C@@H]1C[C@@H](OC(=O)N2Cc3cccc(F)c3C2)CN1C(=O)[C@@H](Nc1cccc(C(F)(F)F)c1)C(C)C)C(=O)NS(=O)(=O)C1CC1 [Compound 47, [(3R,5S)-5-((1R,2R)-1-(cyclopropylsulfonylcarbamoyl)-2-ethylcyclopropylcarbamoyl)-1-((S)-3-methyl-2-(3-(trifluoromethyl)phenylamino)butanoyl)pyrrolidin-3-yl]4-fluoroisoindoline-2-carboxylate]
- IC50 [1]: < 100 nM
- EC50 [2]: < 100 nM
